ChEMBL document CHEMBL1151087, “N-sulfonyl derivatives of 6,7-dichloro 3,4-dihydro-3-oxo-quinoxalinecarboxylate as glycine-site NMDA and AMPA antagonists” (Bioorg Med Chem Lett, 1993)

Key:
[1] = target: Glutamate [NMDA] receptor; assay: Tested for the affinity to the glycine site -NMDA receptor using [3H]Gly as radioligand.; format: protein-complex assay
[2] = Partition coefficient was measured using a shake flask method with octanol/buffer at physiological pH; format: physicochemical
[3] = target: Glutamate receptor ionotropic AMPA (Homo sapiens, UniProt P42261+P42262+P42263+P48058)
Description: Tested for the affinity to the Ionotropic glutamate receptor AMPA using [3H]-AMPA as radioligand

Rattus norvegicus = species on record: Rattus norvegicus; assay: Tested for the ability to suppress the spontaneous epileptiform discharge rate in a cortical wedge model; format: functional, organism-based

| SMILES | IC50 [1] | logD [2] | IC50 [3] | IC50 (Rattus norvegicus) |
| --- | --- | --- | --- | --- |
| NS(=O)(=O)c1cccc2c1c([N+](=O)[O-])cc1nc(O)c(O)nc12 [NBQX] | > 100 µM |  |  |  |
| O=C(O)c1nc2cc(Cl)c(Cl)cc2nc1O [6,7-DICHLORO-3-HYDROXY-2-QUINOXALINECARBOXYLIC ACID] | 0.46 µM | -1 | 6.7 µM |  |
| CS(=O)(=O)NC(=O)c1nc2cc(Cl)c(Cl)cc2nc1O | 0.36 µM | -1.1 | 14 µM | 11 µM |
| O=c1[nH]c2cc([N+](=O)[O-])c([N+](=O)[O-])cc2[nH]c1=O [DNQX] | 0.84 µM | 0.09 | 0.2 µM |  |
| O=C(O)c1cc(O)c2c(Cl)cc(Cl)cc2n1 | 0.068 µM | -0.56 | > 100 µM | 5 µM |
| O=C(NS(=O)(=O)c1ccccc1)c1nc2cc(Cl)c(Cl)cc2[nH]c1=O | 0.12 µM | 0.15 | 4.3 µM | 11 µM |
